Patent publication US12583870B2, “Azaheteroaryl compound and application thereof” (SHANGHAI BLUERAY BIOPHARMA CO., LTD., priority 2019, dated 2026)

How the values were obtained:
[1] = test system: trimethylation level of histone H3K27 in G401 cells; test: ELISA (H3K27 trimethylation) analysis in G401 cells; type: cell-based; conditions: Homo sapiens, G-401, 72 hours, H3K27me3 standardized to H3
Protocol: 3-fold series dilution with DMSO was carried out on the representative compounds of the present disclosure; and 10 concentration gradients were detected for each compound, with the highest detection concentration of 10 μM. The compounds were diluted 200-fold into the G401 cells cultured in a 96-well plate (DMSO at a final concentration of 0.5%). After the cells, administered with the compound, were cultured for 72 hours, the trimethylation level of the histone H3K27 was detected using the ELISA method.
Extraction of the histone: in a 96-well plate, the compound-treated cells were washed three times with 1×PBS (10×PBS buffer (80 g NaCl (Sigma, product number S3014), 2 g KCl (Sigma, product number 60128), 14.4 g Na2HPO4 (Sigma, product number S5136), and 2.4 g KH2PO4 (Sigma, product number P9791) in 1 L of water, adjusting the pH to 7.4)). 100 μL of 0.4 N HCl was added into each well. The plate was placed at 4° C. and gently agitated for 2 hours to lyse the cells. The cell lysate was then neutralized with 80 μL of neutralization buffer (0.5 M disodium hydrogen phosphate, pH 12.5, 2.5 mM DTT; 1% cocktail (Sigma, product number P8340)) (the cell lysate and the neutralization buffer were thoroughly mixed to uniformity).
ELISA detection method: the cell lysate was transferred in parallel to two 384-well detection plates (PerkinElmer, OptiPlate-384HB, product number 6007290), wherein one of the plates was used to detect the H3K27 trimethylation level and the other plate was used to determine the level of H3. PBS was used to adjust the final volume to 50 μL/well. The plates were coated at 4° C. overnight. On the following day, the solution inside the wells was discarded and the plates were washed 5 times with TBST buffer (1×TBS (10×TBS: 24.2 g Tris (Sigma, product number T6066), 80 g NaCl (Sigma, product number S3014) in 1 L of water, adjusting the pH with HCl to 7.6), 0.1% Tween-20) and dried on an absorbent paper by inversion. 70 μL of blocking buffer (TBST, 5% BSA) was added into the coated reaction wells and the plates were incubated at room temperature for 1 hour. The blocking buffer was discarded and primary antibodies were added (30 μL/well). The desired primary antibodies were all diluted with a blocking buffer and the dilution factor was as follows: anti-H3K27me3 antibody (Cell Signaling Technology, product number 9733), 1:2000 dilution; anti-H3 antibody (Cell Signaling Technology, product number 4499), 1:10000 dilution. After the primary antibodies were added, the plates were placed at room temperature and incubated for 1 hour. After the plates were washed with TBST 5 times, the plates were dried by inversion. A secondary antibody (30 μL/well) was added to each of the reaction wells and the plates were incubated at room temperature for 1 hour. The secondary antibody (anti-rabbit antibody (Jackson ImmunoResearch, product number 111-035-003)) was diluted 2000-fold with a blocking buffer before use. After 1 hour, the plates were washed with TBST and dried by inversion. 30 μL of ECL substrate (Pierce, product number 34080) was added into each well and centrifuged at 2000 rpm for 30 seconds. The signal of each sample was detected using SpectraMax (Molecular Devices). Data processing: H3K27 methylation readings were first standardlized using H3 signals and 0.5% DMSO-treated samples was used as the control to calculate the inhibition percentage of the compounds. Data were fit to obtain Dose-Response curves using the GraphPad prism 5 program and the IC50 values of the test compounds were obtained.

[2] = test system: KARPAS-422 cells; test: Cell proliferation analysis, KARPAS-422, 13 days, CellTiter-Glo; type: cell-based; conditions: Homo sapiens, 312 h
Protocol: Human B-cell non-Hodgkin lymphoma cells, KARPAS-422 S, were cultured in a culture flask using standard cell culture conditions. The medium contained 15% fetal bovine serum (FBS, Invitrogen, product number 10099-141) and 1% penicillin/streptomycin solution (P/S) RPMI-1640 (Invitrogen, product number 11875), and the culture flask was placed and cultured in a sterile incubator at the temperature of 37° C. and […] with a relative humidity of […] To detect the effect of PRC2 inhibitors on cell proliferation, cells in exponential growth phase were taken and seeded into a 96-well plate (Corning, product number 3904) at a density of 1×10^4 cells/well, and 100 μL of the medium was added into each well. Subsequently, the compounds at different concentrations disclosed in the present disclosure were added into the wells where cells had already been seeded (9 concentration gradients were provided for each compound, with the highest detection concentration at 10 μM, 3-fold gradient dilution) and two replicates in parallel were provided for each treatment concentration. DMSO was at a final concentration of 0.5%. Afterwards, viable cell numbers were determined using Vi-CELL (Beckman Coulter) every 3-4 days. Cells counted were seeded into a new 96-well plate at the same density (1×10^4 cells/well) each time. The wells were supplemented with a fresh medium to 100 μL and at the same time, compounds at different concentrations were added. The cells were cultured to day 13. 100 μL of CellTiter-Glo (CellTiter-GloCellTiter-GloCellTiter-GloCTG) (Promega, product number G7573) was added into each well. The plate was placed in the dark at room temperature for 10-20 minutes and the luminescence signal was read using SpectraMax i3× (Molecular Devices).

| SMILES | IC50 [1] | IC50 [2] |
| --- | --- | --- |
| NC(=O)c1cnc2c(-c3cnc(NCc4c(F)ccc5c4CCO5)n4cnnc34)cc(F)cn12 [6-fluoro-8-(5-(((5-fluoro-2,3-dihydrobenzofuran-4-yl)methyl)amino)-[1,2,4]triazolo[4,3-c]pyrimidin-8-yl)imidazo[1,2-a]pyridine-3-carboxamide] | 0.0134 µM | 0.0046 µM |
| Fc1ccc2c(c1CNc1ncc(-c3cccc4nn[nH]c34)c3nncn13)CCO2 [8-(1H-benzo[d][1,2,3]triazol-7-yl)-N-((5-fluoro-2,3-dihydrobenzofuran-4-yl)methyl)-[1,2,4]triazolo[4,3-c]pyrimidin-5-amine] | 0.0007 µM | 0.0012 µM |
| Cc1nc2c(-c3cnc(NCc4c(F)ccc5c4CCO5)n4cnnc34)ccc(C)n2n1 [8-(2,5-dimethyl-[1,2,4]triazolo[1,5-a]pyridin-8-yl)-N-((5-fluoro-2,3-dihydrobenzofuran-4-yl)methyl)-[1,2,4]triazolo[4,3-c]pyrimidin-5-amine] | 0.0013 µM | 0.0013 µM |
| CN(C)c1nc2c(-c3cnc(NCc4c(F)ccc5c4CCO5)n4cnnc34)cc(F)cn2n1 [8-(2-(dimethylamino)-6-fluoro-[1,2,4]triazolo[1,5-a]pyridin-8-yl)-N-((5-fluoro-2,3-dihydrobenzofuran-4-yl)methyl)-[1,2,4]triazolo[4,3-c]pyrimidin-5-amine] | 0.0018 µM | 0.0244 µM |
| CN(C)c1nc2c(-c3cnc(NCc4c(F)ccc5c4CCO5)n4cnnc34)cccn2n1 [8-(2-(dimethylamino)-[1,2,4]triazolo[1,5-a]pyridin-8-yl)-N-((5-fluoro-2,3-dihydrobenzofuran-4-yl)methyl)-[1,2,4]triazolo[4,3-c]pyrimidin-5-amine] | 0.0084 µM | 0.0054 µM |
| Fc1ccc2c(c1CNc1ncc(-c3ccc(N4CC5(COC5)C4)n4ncnc34)c3nncn13)CCO2 [8-(5-(2-oxa-6-azaspiro[3.3]heptan-6-yl)-[1,2,4]triazolo[1,5-a]pyridin-8-yl)-N-((5-fluoro-2,3-dihydrobenzofuran-4-yl)methyl)-[1,2,4]triazolo[4,3-c]pyrimidin-5-amine] | 0.0017 µM | 0.0018 µM |
| Fc1ccc2c(c1CNc1ncc(-c3ccc(Cn4ccnc4)n4ncnc34)c3nncn13)CCO2 [8-(5-((1H-imidazol-1-yl)methyl)-[1,2,4]triazolo[1,5-a]pyridin-8-yl)-N-((5-fluoro-2,3-dihydrobenzofuran-4-yl)methyl)-[1,2,4]triazolo[4,3-c]pyrimidin-5-amine] | 0.0006 µM | 0.0009 µM |
| COc1ccc(-c2cnc(NCc3c(F)ccc4c3CCO4)n3cnnc23)c2ncc(C#N)n12 [8-(5-(((5-fluoro-2,3-dihydrobenzofuran-4-yl)methyl)amino)-[1,2,4]triazolo[4,3-c]pyrimidin-8-yl)-5-methoxyimidazo[1,2-a]pyridine-3-carbonitrile] | 0.0039 µM | 0.0062 µM |
| Cc1ccc(-c2cnc(NCc3c(F)ccc4c3CCO4)n3cnnc23)c2ncc(C#N)n12 [8-(5-(((5-fluoro-2,3-dihydrobenzofuran-4-yl)methyl)amino)-[1,2,4]triazolo[4,3-c]pyrimidin-8-yl)-5-methylimidazo[1,2-a]pyridine-3-carbonitrile] | 0.0052 µM | 0.003 µM |
| Cc1ccc(-c2cnc(NCc3c(F)ccc4c3CCO4)n3cnnc23)c2ncc(C(N)=O)n12 [8-(5-(((5-fluoro-2,3-dihydrobenzofuran-4-yl)methyl)amino)-[1,2,4]triazolo[4,3-c]pyrimidin-8-yl)-5-methylimidazo[1,2-a]pyridine-3-carboxamide] | 0.0035 µM | 0.0022 µM |
| N#Cc1cnc2c(-c3cnc(NCc4c(F)ccc5c4CCO5)n4cnnc34)ccc(N3CCOCC3)n12 [8-(5-(((5-fluoro-2,3-dihydrobenzofuran-4-yl)methyl)amino)-[1,2,4]triazolo[4,3-c]pyrimidin-8-yl)-5-morpholinoimidazo[1,2-a]pyridine-3-carbonitrile] | 0.0013 µM | 0.0013 µM |
| COc1cc(-c2cnc(NCc3c(F)ccc4c3CCO4)n3cnnc23)c2ncc(C#N)n2c1 [8-(5-(((5-fluoro-2,3-dihydrobenzofuran-4-yl)methyl)amino)-[1,2,4]triazolo[4,3-c]pyrimidin-8-yl)-6-methoxyimidazo[1,2-a]pyridine-3-carbonitrile] | 0.0042 µM | 0.0045 µM |
| Cc1ccc(-c2cnc(NCc3c(F)ccc4c3CCO4)n3cnnc23)c2nc(C(=O)N(C)C)cn12 [8-(5-(((5-fluoro-2,3-dihydrobenzofuran-4-yl)methyl)amino)-[1,2,4]triazolo[4,3-c]pyrimidin-8-yl)-N,N,5-trimethylimidazo[1,2-a]pyridine-2-carboxamide] | 0.0023 µM | 0.0028 µM |
| Cc1ccc(-c2cnc(NCc3c(F)ccc4c3CCO4)n3cnnc23)c2ncc(C(=O)N(C)C)n12 [8-(5-(((5-fluoro-2,3-dihydrobenzofuran-4-yl)methyl)amino)-[1,2,4]triazolo[4,3-c]pyrimidin-8-yl)-N,N,5-trimethylimidazo[1,2-a]pyridine-3-carboxamide] | 0.0014 µM | 0.0012 µM |
| CN(C)C(=O)c1ccc(-c2cnc(NCc3c(F)ccc4c3CCO4)n3cnnc23)c2nccn12 [8-(5-(((5-fluoro-2,3-dihydrobenzofuran-4-yl)methyl)amino)-[1,2,4]triazolo[4,3-c]pyrimidin-8-yl)-N,N-dimethylimidazo[1,2-a]pyridine-5-carboxamide] | 0.0007 µM | 0.0013 µM |
| N#Cc1ccc(-c2cnc(NCc3c(F)ccc4c3CCO4)n3cnnc23)c2nccn12 [8-(5-(((5-fluoro-2,3-dihydrobenzofuran-4-yl)methyl)amino)-[1,2,4]triazolo[4,3-c]pyrimidin-8-yl)imidazo[1,2-a]pyridine-5-carbonitrile] | 0.0048 µM | 0.0036 µM |
| CN(C)Cc1ccc(-c2cnc(NCc3c(F)ccc4c3CCO4)n3cnnc23)c2ncnn12 [8-(5-((dimethylamino)methyl)-[1,2,4]triazolo[1,5-a]pyridin-8-yl)-N-((5-fluoro-2,3-dihydrobenzofuran-4-yl)methyl)-[1,2,4]triazolo[4,3-c]pyrimidin-5-amine] | 0.0006 µM | 0.0005 µM |
| CN(C)c1ccc(-c2cnc(NCc3c(F)ccc4c3CCO4)n3cnnc23)c2ncnn12 [8-(5-(dimethylamino)-[1,2,4]triazolo[1,5-a]pyridin-8-yl)-N-((5-fluoro-2,3-dihydrobenzofuran-4-yl)methyl)-[1,2,4]triazolo[4,3-c]pyrimidin-5-amine] | 0.001 µM | 0.0014 µM |
| Fc1ccc2c(c1CNc1ncc(-c3ccc(Cl)n4ncnc34)c3nncn13)CCO2 [8-(5-chloro-[1,2,4]triazolo[1,5-a]pyridin-8-yl)-N-((5-fluoro-2,3-dihydrobenzofuran-4-yl)methyl)-[1,2,4]triazolo[4,3-c]pyrimidin-5-amine] | 0.033 µM | 0.018 µM |
